System: T1, PeLac (Pleurotus eryngii laccase)
T1 construct: gene ery3
Details: free enzyme, partially purified; ABTS 0.01-2.0 mM; 25 °C; co-substrate O2

Km: 118 ± 8.9 µM
SMILES: CCn1c(=NN=c2sc3cc(S(=O)(=O)O)ccc3n2CC)sc2cc(S(=O)(=O)O)ccc21 [ABTS]

From paper PMC12286210, “Immobilization of Pleurotus eryngii Laccase via a Protein–Inorganic Hybrid for Efficient Degradation of Bisphenol A as a Potent Xenobiotic” (Journal of Xenobiotics, 2025)
